Data published in patent US6750239B2, “Pyrazole-derived kinase inhibitors and uses thereof” (Vertex Pharmaceuticals Incorporated, priority 2001, dated 2004).

How the values were obtained:
[1] = molecular target: activated ERK2 (Homo sapiens, UniProt P28482); assay: ERK2 inhibition spectrophotometric coupled-enzyme assay; assay type: biochemical; conditions: activated ERK2 10 nM, 65 μM ATP, 30° C., pH 7.5; read-out: ERK2 Inhibitory Activity (Ki class)
Method: Compounds are assayed for the inhibition of ERK2 by a spectrophotometric coupled-enzyme assay (Fox et al (1998) Protein Sci 7, 2249). In this assay, a fixed concentration of activated ERK2 (10 nM) is incubated with various concentrations of the compound in DMSO (2.5%) for 10 min. at 30° C. in 0.1 M HEPES buffer, pH 7.5, containing 10 mM MgCl2, 2.5 mM phosphoenolpyruvate, 200 μM NADH, 150 μg/mL pyruvate kinase, 50 μg/mL lactate dehydrogenase, and 200 μM erktide peptide. The reaction is initiated by the addition of 65 μM ATP. The rate of decrease of absorbance at 340 nm is monitored, which indicates the extent of uninhibited enzyme present in the assay. The IC50 is evaluated from the rate data as a function of inhibitor concentration.
The compound numbers correspond to the compound numbers in Tables 1-3.

[2] = test system: Colon cancer cells (HT-29 cell line); assay: ERK inhibition cell proliferation assay (3H-thymidine uptake); assay type: cell-based; conditions: Homo sapiens, HT-29 cells, 3 days incubation
Method: Compounds may be assayed for the inhibition of ERK2 by a cell proliferation assay. In this assay, a complete media is prepared by adding 10% fetal bovine serum and penicillin/streptomycin solution to RPMI 1640 medium (JRH Biosciences). Colon cancer cells (HT-29 cell line) are added to each of 84 wells of a 96 well plate at a seeding density of 10,000 cells/well/150 μL. The cells are allowed to attach to the plate by incubating at 37° C. for 2 hours. A solution of test compound is prepared in complete media by serial dilution to obtain the following concentrations: 20 μM, 6.7 μM, 2.2 μM, 0.74 μM, 0.25 μM, and 0.08 μM. The test compound solution (50 μL) is added to each of 72 cell-containing wells. To the 12 remaining cell-containing wells, only complete media (200 μL) is added to form a control group in order to measure maximal proliferation. To the remaining 12 empty wells, complete media is added to form a vehicle control group in order to measure background. The plates are incubated at 37° C. for 3 days. A stock solution of ^3H-thymidine (1 mCi/mL, New England Nuclear, Boston, Mass.) is diluted to […] in RPMI medium then 20 μL of this solution is added to each well. The plates are further incubated at 37° C. for 8 hours then harvested and analyzed for ^3H-thymidine uptake using a liquid scintillation counter.

Sequence of activated ERK2 (P28482 whole entry): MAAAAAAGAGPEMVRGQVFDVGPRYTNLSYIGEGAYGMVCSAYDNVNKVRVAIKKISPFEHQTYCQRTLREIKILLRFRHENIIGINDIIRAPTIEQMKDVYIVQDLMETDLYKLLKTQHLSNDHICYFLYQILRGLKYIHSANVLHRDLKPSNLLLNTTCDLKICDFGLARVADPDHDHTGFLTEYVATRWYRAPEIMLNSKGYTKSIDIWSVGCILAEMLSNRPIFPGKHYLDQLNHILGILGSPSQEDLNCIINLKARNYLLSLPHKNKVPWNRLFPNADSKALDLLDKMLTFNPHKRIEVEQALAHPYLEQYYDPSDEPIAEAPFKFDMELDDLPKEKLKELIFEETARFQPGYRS

| SMILES | Ki [1] [nM] | IC50 [2] [nM] |
| --- | --- | --- |
| CCNCc1ccc(-c2c[nH]nc2-c2c[nH]c(C(=O)N[C@H](CO)c3ccc(F)c(Cl)c3)c2)cc1Cl [II-26, 4-[4-(3-Chloro-4-ethylaminomethyl-phenyl)-1H-pyrazol-3-yl]-1H-pyrrole-2-carboxylic acid [1-(3-chloro-4-fluoro-phenyl)-2-hydroxy-ethyl]-amide] | < 1000 | < 10000 |
| CCCCNCc1ccc(-c2cn[nH]c2-c2c[nH]c(C(=O)NC(CO)c3ccc(F)c(Cl)c3)c2)cc1Cl (stereo not shown) [II-7] | < 1000 | < 10000 |
| CC(=O)N[C@H](C(=O)NCc1ccc(-c2cn[nH]c2-c2c[nH]c(C(=O)N[C@H](CO)c3ccc(F)c(Cl)c3)c2)cc1Cl)C(C)C [II-21] | < 1000 | < 10000 |
| CCOC(=O)CN(C)Cc1ccc(-c2cn[nH]c2-c2c[nH]c(C(=O)N[C@H](CO)c3ccc(F)c(Cl)c3)c2)cc1Cl [II-83] | < 1000 |  |
| CC(C)NCc1ccc(-c2cn[nH]c2-c2c[nH]c(C(=O)N[C@H](CO)c3ccc(F)c(Cl)c3)c2)cc1C(F)(F)F [II-57] | < 1000 |  |
| CCOC(=O)C(C)N(C)Cc1ccc(-c2cn[nH]c2-c2c[nH]c(C(=O)N[C@H](CO)c3ccc(F)c(Cl)c3)c2)cc1C(F)(F)F (stereo partly shown) [II-64] | < 1000 |  |
| N[C@H](CO)C(=O)NCc1ccc(-c2cn[nH]c2-c2c[nH]c(C(=O)NC(CO)c3ccc(F)c(Cl)c3)c2)cc1Cl (stereo partly shown) [II-18] | < 1000 |  |
| CC(O)CCNCc1ccc(-c2cn[nH]c2-c2c[nH]c(C(=O)N[C@H](CO)c3ccc(F)c(Cl)c3)c2)cc1Cl (stereo partly shown) [II-32] | < 1000 |  |
| CC(C)(C)OC(=O)NCCNCc1ccc(-c2cn[nH]c2-c2c[nH]c(C(=O)N[C@H](CO)c3ccc(F)c(Cl)c3)c2)cc1Cl [II-37] | < 1000 |  |
| CN(C)CCNCc1ccc(-c2cn[nH]c2-c2c[nH]c(C(=O)N[C@H](CO)c3ccc(F)c(Cl)c3)c2)cc1Cl [II-79] | < 1000 |  |
| CCC(=O)CN(CC(=O)CC)Cc1ccc(-c2cn[nH]c2-c2c[nH]c(C(=O)N[C@H](CO)c3ccc(F)c(Cl)c3)c2)cc1Cl [II-73] | < 1000 |  |
| CCN(CC)Cc1ccc(-c2cn[nH]c2-c2c[nH]c(C(=O)N[C@H](CO)c3ccc(F)c(Cl)c3)c2)cc1Cl [II-34] | < 1000 |  |
| CCOC(=O)CN(CC(=O)OCC)Cc1ccc(-c2cn[nH]c2-c2c[nH]c(C(=O)N[C@H](CO)c3ccc(F)c(Cl)c3)c2)cc1Cl [II-84] | < 1000 |  |
